Measured values taken from paper PMC8096265, “A functional LSD1 coregulator screen reveals a novel transcriptional regulatory cascade connecting R-loop homeostasis with epigenetic regulation” (Nucleic Acids Research, 2021).

Columns and labels:
[1] = tested on: rTetR-LSD1 at synP-mCherry reporter in NIH/3T3 cells; assay: Flow-cytometric synP-mCherry reporter silencing by rTetR-LSD1; type: cell-based, murine; conditions: n = 3; for effect of inhibitor on rTetR-LSD1 activity at synP (mCherry silencing): 10 μM GSK-LSD1 or 400 nM TSA, started in parallel with DOX (1 μg/ml), vs DMSO
Excerpt: The fluorescent reporter expressing mCherry from a synthetic promoter (synP), consisting of six tetO binding sites upstream of an EF1a promoter, was cloned into pMSCV vector, on which expression of mCherry was driven by the synP promoter element and coupled to Blasticidin resistance via a P2A (pMSCV-tetO-EF1a-mCherry-2A-Blasti). The rTetR-LSD1 fusion construct was cloned into a pRRL backbone by standard cloning methods. The LSD1 construct was kindly provided by Tim Somervaille. Expression was driven from an SFFV promoter and coupled to Hygromycin resistance via a P2A sequence (pRRL-rTetR-LSD1-P2A-Hygro). shRNA guides were cloned into the SGEN vector ([49]).
NIH/3T3, Lenti-X 293T and Platinum-E retroviral packaging cell lines were cultivated in DMEM high glucose media (Sigma-Aldrich) supplemented with 10% FBS, 20 mM glutamate, 10 mM sodium pyruvate, 10 mM HEPES (pH 7.3), 100 U/ml penicillin and […] in an incubator providing 37°C and 5% CO2. For retroviral packaging of pMSCV vectors, 20 μg of plasmid were precipitated for 20 min in HBS buffer (140 mM NaCl, 25 mM HEPES, 0.75 mM Na2HPO4, pH 7.0) together with 125 mM CaCl2 and 10 μg GagPol helper plasmid. The mix was added to a 10 cm dish with Platinum-E cells growing at 75–85% confluence in supplemented DMEM. After 16 and 24 h, the media was replaced with fresh DMEM. Supernatant containing the virus was gathered 40–50 h after transfection, filtered through a 0.45 μm filter and added to the target cells at 50–70% confluence. Antibiotic selection for pMSCV-tetO-EF1a-mCherry-2A-Blasti with 10 μg/ml Blasticidin was started 2 days after transduction and kept up for 7 days. For […] packaging of pRRL-vectors, plasmids were mixed with helper plasmids pCMVR8.74 (pCMVR8.74 was a gift from Didier Trono, Addgene #22036) and pCAG-Eco (pCAG-Eco was a gift from Arthur Nienhuis & Patrick Salmon, Addgene #35617) and 3× (w/w) excess of polyethyleneimine 25K in serum free DMEM. […] Expression of GFP and mCherry was analysed every 1–3 days using a MACSQuant Vyb flow cytometer.

[2] = tested on: RNA:DNA hybrid structures (R-loops) in NIH/3T3 cells; assay: DRIP-qPCR with S9.6 antibody, R-loops; type: cell-based, murine; conditions: relative to DMSO, NIH/3T3, n = 3
Experimental: Based on a detailed assessment of various DRIP protocols ([53]), DRIP was performed as described, with slight adaptations to workflow #19 ([53]). In brief, NIH/3T3 cells were harvested, washed once with 1X PBS and cross-linked in 1% formaldehyde/PBS for 10 min at room temperature. Crosslinking was quenched with 500 mM glycine for 5 min at room temperature. Cells were lysed in 300 μl of ChIP lysis buffer (50mM HEPES–KOH at pH 7.5, 140 mM NaCl, 1 mM EDTA at pH 8, 1% Triton X-100, 0.1% sodium-deoxycholate, 1% SDS) per 2 million cells for 30 min on ice and homogenized with a syringe every 10 min. Chromatin was fragmented by sonication using an EpiShear Probe Sonicator (Active Motif) for 2 × 12 cycles (20 s pulse, 30 s pause, 40% amplitude). The fragmented chromatin was supplemented with 300 mM NaCl and 50 μg of RNase A in 450 μl TE buffer (10 mM Tris–HCl pH 8, 10 mM EDTA pH 8) and incubated at 37°C for 1 h. The cross-linked D. melanogaster mononucleosomes were treated in parallel to obtain DNA for spike-in controls. To remove proteins and reverse the cross-links, the samples were treated with 15 μl of Proteinase K (20 mg/ml; Thermo Fisher Scientific) at 65°C for 16 h. […] The pellet was resuspended in 5 mM Tris–HCl, pH 8.5 and concentration was determined by NanoDrop. […]

[3] = tested on: EZH2; assay: Global H3K27me3 signal after EZH2 inhibition; type: cell-based; conditions: EZH2-specific inhibitor; Supplementary Figure S6C
[4] = tested on: rTetR-LSD1 silencing of synP-mCherry in NIH/3T3 cells; assay: ChECS pooled shRNA screen, primary sequencing data; type: cell-based, murine; conditions: 14 days DOX; for sequencing reads neg2 / sequencing reads neg3 / sequencing reads neg4 / sequencing reads neg5: mCherry-negative sorted population; for sequencing reads neg2 / sequencing reads pos2: replicate 2; for sequencing reads neg3 / sequencing reads pos3: replicate 3; for sequencing reads neg4 / sequencing reads pos4: replicate 4; for sequencing reads neg5 / sequencing reads pos5: replicate 5; for sequencing reads pos1 / sequencing reads pos2 / sequencing reads pos3 / sequencing reads pos4 / sequencing reads pos5: mCherry-positive sorted population; for sequencing reads pos1: replicate 1
Excerpt: After spiking in control shRNAs at equimolar amounts, the shRNA-mirE library (5451 shRNAs and 8 control shRNAs) targeting 1010 chromatin-associated murine genes was transduced into NIH/3T3 cells expressing the synP-mCherry reporter and rTetR-LSD1. To ensure library representation, a total of 30 million cells were infected with 10% transduction efficiency using conditions that predominantly lead to a single retroviral integration and represent each shRNA in a calculated number of >500 cells. Cells were split into replicates and selected with 2.5 mg/ml Neomycin for 7 days before starting treatment with 1 μg/ml doxycycline. Throughout selection >3 × 10^6 cells per replicate were maintained at each passage to preserve library representation. After 14 days of DOX treatment, cells were sorted into mCherry-positive (top 6–8%, minimum of 5 × 10^5 cells) and mCherry-negative (lowest 75–80%, minimum of 6 × 10^6 cells, see Supplementary Figure S2) populations using a FACS Aria III. Genomic DNA for both populations and 5 replicates was isolated with phenol-extraction using PhaseLock tubes, followed by ethanol precipitation. For each sample, DNA from at least 10^6 cells was used as template in multiple parallel 50-μl PCR reactions, each containing 1 μg template, 1× AmpliTaq Gold buffer, 0.2 mM of each dNTP, 2 mM MgCl2, 0.3 μM of each primer and 1.25 U AmpliTaq Gold Polymerase (Life Technologies). In a first round of PCRs, random barcodes and sample barcodes were added to the shRNA sequences using the following cycling parameters: 95°C for 10 min; 28 cycles of (95°C for 30 s, 54°C for 45 s and 72°C for 60 s); 72°C for 7 min and primers MM2P51_for and MM2P71_rev (Supplementary Table S3). PCR products were combined for each sample, purified from a 1% agarose gel and 20 ng per sample were transferred to a second round of PCR, using similar cycling parameters as for PCR1, but with only 10 ng template per reaction, 6 cycles of amplification and primers MM2P52_for and MM2P72_rev_N708 (Supplementary Table S3). In the second PCR, standard Illumina P7 adaptors and the Illumina N708 index were added to the sequences (total product length = 428 bp). All primers used for the library preparation are listed in […]. The final libraries were cleaned up from a 1% agarose gel, pooled and analysed on an Illumina HiSeq 3000 deep sequencer (150 bp read length including the 22 nucleotides of the guide strand), using standard Illumina primers. Sequence processing was performed using a public Galaxy server (www.usegalaxy.eu). All primary screen data are provided in Supplementary Data Table S1. For each shRNA, the number of matching reads was normalized to the total number of library-specific reads per lane and imported into Microsoft Excel for further analysis. Completely depleted shRNAs (0 reads at T0) obtained a fold depletion value of 1 × 10^−3. The average enrichment score for each individual shRNA was calculated by dividing the geometric mean of the normalized reads of the mCherry+ population by the respective normalized reads mCherry– populations (mCherry+/mCherry–) across five replicates. The gene score was derived by summarizing the average enrichment score of all shRNAs per gene. P-values are based on a Poisson distribution of each shRNA in each individual replicate followed by the combination of all P-values across all replicates using Fisher′s method (cumulative χ^2). χ^2 is a chi-squared distribution with 2k degrees of freedom, where k is the number of tests being combined. This fact was used to determine the P-value for χ^2 followed by a Bonferroni correction for multiple comparison to obtain a P-value for each investigated gene in the library.

## CCCc1cc(C)[nH]c(=O)c1CNC(=O)c1cc(-c2ccnc(N3CCN(C)CC3)c2)cc2c1cnn2C(C)C [GSK343]
[1]; 5 μM GSK343 vs DMSO during rTetR-LSD1 recruitment via DOX, time course
  LSD1 silencing capacity at the synP element after GSK343 treatment: diminished LSD1 silencing capacity at the synP element
[2]; 5 μM GSK343, 3 days, synP element and representative endogenous loci
  R-loop occupancy after GSK343 treatment: increased R-loop occupancy
[3]
  H3K27me3 signal after GSK343 treatment: global reduction of H3K27me3 signal

## c1ccc([C@@H]2C[C@H]2NC2CCNCC2)cc1 [GSK-LSD1]
[1]
  effect of inhibitor on rTetR-LSD1 activity at synP (mCherry silencing): the activity of rTetR-LSD1 at the synP element is dependent on the catalytic activity of LSD1 and HDACs
[2]; 50 μM GSK-LSD1, 3 days, synP element and representative endogenous regions
  R-loops after GSK-LSD1 treatment: substantial increase in R-loops

## CC(/C=C/C(=O)NO)=C\[C@@H](C)C(=O)c1ccc(N(C)C)cc1 [Trichostatin A (TSA), Trichostatin A]
[1]
  effect of inhibitor on rTetR-LSD1 activity at synP (mCherry silencing): the activity of rTetR-LSD1 at the synP element is dependent on the catalytic activity of LSD1 and HDACs

## Homez.5313: library shRNA, guide TAAAACAGTAGTTCCTAGCCTT
[4]
  sequencing reads neg2: 0.001
  sequencing reads neg3: 22
  sequencing reads neg4: 0
  sequencing reads neg5: 4
  sequencing reads pos1: 130
  sequencing reads pos2: 19
  sequencing reads pos3: 22
  sequencing reads pos4: 4
  sequencing reads pos5: 48

## Kdm4b.2934: library shRNA, guide TTCTTGGTGATGACGATCTGGC
[4]
  sequencing reads neg2: 0.001
  sequencing reads neg3: 0
  sequencing reads neg4: 0
  sequencing reads neg5: 14
  sequencing reads pos1: 14
  sequencing reads pos2: 426
  sequencing reads pos3: 0
  sequencing reads pos4: 1
  sequencing reads pos5: 159
